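Where inhibition never reached the appropriate level, the endpoint shown equals the highest concentration tested. Otherwise, values were interpolated linearly from a five-concentration, 48-hour dose response in 96-well plates. GI50 marks 50% less growth.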 Activity calls are given as the source filed them. Rule as the data show it: active = GI50 up to about 1.1 µM and inactive = higher.

The text below walks through data of ChEMBL document CHEMBL1201862, “PubChem BioAssay data set” (2004).

Holding throughout (experiment): NCI tumour cell line growth inhibition, 48 h
For test [1], the system named is MDA-N.
In test [2] the test system is HCT-116.
Test [3] has as its system SK-MEL-2.
For test [4], the system named is HT-29.
For test [5], the system named is M14.
In test [6] the test system is HOP-62.
In test [7] the test system is TK-10.
Test [8] concerns IGROV-1.
Test [9] has as its system MDA-MB-231.
Test [10] relates to SN12C.
Test [11] concerns KM12.
Test [12] concerns SK-MEL-5.
Test [13] relates to 786-0.
The subject of test [14] is K562.
Test [15] relates to OVCAR-4.
Test [16] deals with U-251.
In test [17] the test system is EKVX.
The subject of test [18] is HL-60.
In test [19] the test system is NCI-H460.
In test [20] the test system is HOP-92.

Turning to `Cc1cccc2nc3c(=O)[nH]c(=O)nc-3n(C)c12`, the GI50 in [1] was 62.1 µM (inactive); in test [2] it was 30.4 µM (inactive); in test [3] it was 48.8 µM (inactive); in test [4], 33.2 µM (inactive); in test [5], 37.8 µM (inactive); in test [6], 79.6 µM (inactive). Moreover, the GI50 in test [7] is > 100 µM (inactive); in [8], > 100 µM (inactive); in test [9] it was > 100 µM (inactive); in test [10], > 100 µM (inactive); in test [11], 31.9 µM (inactive); in test [12], 29.6 µM (inactive). Further, the GI50 in test [13] was 99.3 µM (inactive); in test [14], 46.6 µM (inactive); in test [15], 45.5 µM (inactive); in test [16], 86.5 µM (inactive); in [17], > 100 µM (inactive); in test [18], 15.7 µM (inactive). The GI50 in [19] was 48.1 µM (inactive).
Take `Oc1ccccc1/C=N/N1C(=S)N(C23CC4CC(CC(C4)C2)C3)C(=N\c2ccccc2)/C1=N/c1ccccc1`: the GI50 in test [1] is > 100 µM (inactive); in [20], 29.7 µM (inactive); in [2] it was 14.1 µM (inactive); in test [3], > 100 µM (inactive); in test [4] it was 29.6 µM (inactive); in [5] it was > 100 µM (inactive). Also, the GI50 in [6] was > 100 µM (inactive); in test [7], > 100 µM (inactive); in [8] it was > 100 µM (inactive); in [9] it was 8.04 µM (inactive); in test [10], > 100 µM (inactive); in test [11], > 100 µM (inactive). For the same molecule, the GI50 in test [12] was 23.4 µM (inactive); in [13], > 100 µM (inactive); in test [14], 4.46 µM (inactive); in test [16], 76.6 µM (inactive); in test [17] it was > 100 µM (inactive); in test [19], 71.8 µM (inactive).
`Oc1ccc(-c2c3c(nc4c2CCc2ccc(Br)cc2-4)-c2cc(Br)ccc2CC3)cc1`: the GI50 in test [1] is 18.6 µM (inactive); in [20], 16 µM (inactive); in test [2] it was 24.4 µM (inactive); in test [3] it was 16.8 µM (inactive); in [5] it was 23.9 µM (inactive); in test [6] it was 17.2 µM (inactive). Moreover, the GI50 in [7] is 21.1 µM (inactive); in test [8], 17 µM (inactive); in [9], 17.7 µM (inactive); in test [10], 20 µM (inactive); in [11] it was 19.7 µM (inactive); in [12], 20.7 µM (inactive). Besides, the GI50 in test [13] was 18.9 µM (inactive); in [15] it was 22.3 µM (inactive); in test [16] it was 17.5 µM (inactive); in test [17], 22 µM (inactive); in test [19] it was 22.5 µM (inactive).
For `O=C1/C(=C/c2ccc(Cl)cc2)NC(=S)N1CN1CCOCC1`, the GI50 in test [1], in test [20], in test [2], in test [3], in test [4] and in [5] was > 100 µM (inactive) in each case. The GI50 in test [6], in test [7], in test [8], in test [9], in test [10] and in test [11] was > 100 µM (inactive) each time. The GI50 in test [12], in test [13], in [14], in test [15], in test [16] and in [17] was > 100 µM (inactive) each time.
On to `COc1ccc(Nc2nc3ccccc3nc2C(=O)O)cc1OC`, for which the GI50 was > 100 µM (inactive) in test [1]; 27.5 µM (inactive) in test [20]; > 100 µM (inactive) in [2]; > 100 µM (inactive) in test [4]; > 100 µM (inactive) in [5]; 34.4 µM (inactive) in test [6]. For the same molecule, the GI50 in test [7] is 82.8 µM (inactive); in test [8], 98.4 µM (inactive); in test [9], 56.2 µM (inactive); in [10], 48.1 µM (inactive); in [11] it was 66.8 µM (inactive); in [12], 28.5 µM (inactive). In addition, the GI50 in test [13] was 73.6 µM (inactive); in test [14] it was > 100 µM (inactive); in test [16] it was > 100 µM (inactive); in test [17], 61.7 µM (inactive); in test [18], 88.1 µM (inactive); in test [19], 45.8 µM (inactive).
In the case of `O=C1CCC2(c3ccc(Cl)cc3)Nc3ncncc3N12` (stereo not drawn), the GI50 in test [1], in test [20], in test [3], in [4], in test [5] and in [7] was > 10 µM (inactive) each time. Moreover, the GI50 in test [8] is > 10 µM (inactive); in [9] it was 0.001 µM (active); in test [10] it was > 10 µM (inactive); in [11], > 10 µM (inactive); in test [13] it was > 10 µM (inactive); in [14], > 10 µM (inactive). For the same molecule, the GI50 in [15], in test [16], in [17] and in test [19] was > 10 µM (inactive) each time.
For the molecule `COc1cc(/C=C\C(=O)O)ccc1OCc1ccccc1`, the GI50 in [1] is > 100 µM (inactive); in test [20], 20.3 µM (inactive); in test [2], > 100 µM (inactive); in test [3], > 100 µM (inactive); in test [5], > 100 µM (inactive); in [6], > 100 µM (inactive). The GI50 in test [7] is > 100 µM (inactive); in test [8] it was > 100 µM (inactive); in [9], > 100 µM (inactive); in test [10], > 100 µM (inactive); in test [11], 0.217 µM (active); in test [12], > 100 µM (inactive). Further, the GI50 in test [13], in [14], in [16], in test [17], in [18] and in [19] was > 100 µM (inactive) throughout.
Regarding `CC1(C)C(C#N)C1C1=C(N2CCOCC2)[C@]2(C)C(OC(=O)c3ccccc3)CC[C@@H]2C1` (stereo partly drawn), the GI50 was > 100 µM (inactive) in test [1]; 61.2 µM (inactive) in test [20]; 33.7 µM (inactive) in test [2]; 50.1 µM (inactive) in test [4]; > 100 µM (inactive) in test [5]; > 100 µM (inactive) in test [6]. In addition, the GI50 in test [7] was > 100 µM (inactive); in test [8], > 100 µM (inactive); in test [9] it was > 100 µM (inactive); in test [10], > 100 µM (inactive); in [11] it was > 100 µM (inactive); in test [12] it was 29.8 µM (inactive). Moreover, the GI50 was > 100 µM (inactive) in test [13]; 38.5 µM (inactive) in test [14]; > 100 µM (inactive) in test [15]; > 100 µM (inactive) in test [16]; > 100 µM (inactive) in [17]; > 100 µM (inactive) in [19].
On to `Nc1ccn(C2CC3OCC3O2)c(=O)n1` (stereo not drawn), for which the GI50 in test [1], in [2], in test [3], in test [4], in [5] and in test [6] was > 100 µM (inactive) each time. Further, the GI50 in [7], in [8], in test [9], in test [10], in test [11] and in [12] was > 100 µM (inactive) each time. Besides, the GI50 in [13], in test [14], in test [15], in test [16], in [17] and in [18] was > 100 µM (inactive) throughout. In test [19], the GI50 was > 100 µM (inactive).
Regarding `C=C1C(=O)O[C@H]2[C@H]3O[C@@H](C[C@@H]12)[C@](C)(O)CCCC(C)=CCC[C@H]3C`, the GI50 is 16.1 µM (inactive) in test [1]; 1.34 µM (inactive) in [20]; 13.6 µM (inactive) in [2]; 15 µM (inactive) in [3]; 13.5 µM (inactive) in [4]; 16.7 µM (inactive) in test [6]. Besides, the GI50 in test [7] was 3.24 µM (inactive); in [8] it was 1.67 µM (inactive); in test [9], 11.7 µM (inactive); in [10], 11.9 µM (inactive); in test [11], 14.1 µM (inactive); in test [12], 10.8 µM (inactive). The GI50 in [13] was 54.3 µM (inactive); in [14], 6.37 µM (inactive); in test [15] it was 16.1 µM (inactive); in [16] it was 14 µM (inactive); in test [17], 10.4 µM (inactive); in test [19], 5.18 µM (inactive).
`CC1(c2ccc(Cl)cc2)C=C(c2ccc(Cl)cc2)C(C#N)=C(C(C#N)C#N)N1.CNC` (stereo not drawn): the GI50 in test [1] was 17.3 µM (inactive); in [2], 14 µM (inactive); in [3] it was 19.5 µM (inactive); in [4], 16.6 µM (inactive); in [5], 18.6 µM (inactive); in [6] it was 16.5 µM (inactive). Besides, the GI50 in test [7] was 18.7 µM (inactive); in [8], 12.9 µM (inactive); in test [9] it was 24.9 µM (inactive); in test [10], 18.3 µM (inactive); in test [11], 17.3 µM (inactive); in [12], 14.2 µM (inactive). For the same molecule, the GI50 is 13.8 µM (inactive) in test [13]; 19.2 µM (inactive) in test [14]; 15.1 µM (inactive) in test [15]; 16.1 µM (inactive) in test [16]; 16.6 µM (inactive) in test [17]; 13.1 µM (inactive) in [18]. In addition, the GI50 in test [19] was 20.4 µM (inactive).
